We go through 10 compounds from patent US20130252890A1, “6,7-DIHYDRO-5H-BENZO[7]ANNULENE DERIVATIVES, PROCESS FOR PREPARATION THEREOF, PHARMACEUTICAL PREPARATIONS COMPRISING THEM, AND THE USE THEREOF FOR PRODUCTION OF MEDICAMENTS” (BAYER INTELLECTUAL PROPERTY GMBH, priority 2010, published 2013).

Series [1] deals with T1, oestrogen receptor (ER) (Homo sapiens, UniProt P03372).
T1 construct: These MVLN cells express, along with the functional oestrogen receptor (ER), a reporter construct; endogenous in cells; host or cells: MVLN cells (MCF7 derivative carrying a luciferase reporter construct)
T1 sequence (P03372 1-595): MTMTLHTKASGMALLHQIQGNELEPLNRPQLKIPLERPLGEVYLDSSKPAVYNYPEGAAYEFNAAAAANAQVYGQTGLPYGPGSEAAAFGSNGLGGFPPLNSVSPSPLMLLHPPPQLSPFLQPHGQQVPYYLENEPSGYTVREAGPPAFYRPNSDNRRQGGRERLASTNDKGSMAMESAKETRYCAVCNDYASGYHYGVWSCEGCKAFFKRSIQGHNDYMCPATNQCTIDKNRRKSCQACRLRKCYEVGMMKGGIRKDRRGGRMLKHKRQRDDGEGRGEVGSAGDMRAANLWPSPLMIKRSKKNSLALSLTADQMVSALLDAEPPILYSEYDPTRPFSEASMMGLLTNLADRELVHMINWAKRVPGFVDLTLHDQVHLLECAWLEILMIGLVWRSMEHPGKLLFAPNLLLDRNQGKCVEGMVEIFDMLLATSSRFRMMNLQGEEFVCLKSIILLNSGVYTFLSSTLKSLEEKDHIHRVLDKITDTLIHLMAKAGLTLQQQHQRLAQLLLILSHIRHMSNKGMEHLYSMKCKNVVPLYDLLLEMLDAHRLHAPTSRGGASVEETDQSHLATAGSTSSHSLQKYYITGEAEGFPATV
The series can be described thus: Anti-oestrogenic action in MVLN cells (inhibition of estradiol-induced luciferase). The class given is cell-based. As to conditions: inhibition of estradiol-induced luciferase signal, value of Ex. 44 is a mean value, read-out: Antioestrogenic action in vitro: MVLN transactivation antagonism IC50. In outline: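 Inhibition of estradiol-driven luciferase expression was measured with compounds co-applied alongside oestrogen. Reporter system: MCF7-derived MVLN cells expressing endogenous functional ER and an ER-responsive luciferase construct.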

Series [2] concerns uterus. In words: Oestrogenic action - uterus growth test in the infantile rat. The class given is in vivo. As to conditions: sc, 72 h, s.c. 3 days, relative to E2 0.3 μg/animal, read-out: maximum uterotropic action (% estradiol action) in the dose range from 0.03 to 3 mg/kg; for Emax at 0.03 mg/kg: maximum at dose 0.03 mg/kg; for Emax at 0.3 mg/kg: maximum at dose 0.3 mg/kg. As for the experimental part: Both the uterus and the vagina show a weight increase that is dependent on oestrogenic efficacy, in infantile animals when they are treated with a substance with oestrogenic action. In the uterus, under oestrogenic action there is also proliferation and increase in height of the luminal epithelium.
Immature, intact rats (n=5-6 animals/group; body weight 40-50 g) receive the substance s.c. for 3 days (d1-d3). On day 4 (d4) the animals are killed with CO2. The uteri are removed and weighed. For histological assessment, a piece of uterus, preferably a uterine horn, is fixed in formaldehyde and embedded in paraffin. The stimulation of the organ weights (relative to mg/100 g body weight) and the height of the epithelium are shown as percentage stimulation in comparison with the reference compound 17β-estradiol (E2). (Substitution dose of E2 0.3 μg/animal).

For series [3], the system named is uterus. In words: Anti-uterus growth test in the adult rat. The conditions noted are these: sc, 72 h; ovariectomized adult rat, s.c. 3 days with 1.5 μg/kg/day 17β-estradiol; inhibition of uterus growth; value of 44 is a mean of two measurements; read-out: anti-oestrogenic activity in vivo in % at a dose of 0.3 mg/kg (rat). An excerpt: The uterus of oestrogen-substituted rats can be used as a test model for detecting a direct action of substances with anti-oestrogenic properties. The parameter of oestrogenic action is estradiol-induced uterus growth in rats, which is inhibited by simultaneous administration of a substance with anti-oestrogenic action. The experimental animals (n=5-6 animals/group) were ovariectomized before the start of the test, to rule out the influence of endogenous oestrogens. After a phase of 6 to 10 days, the test substances are administered s.c. on 3 consecutive days (d1-d3) in combination with a substitution dose of 1.5 μg/kg/day 17β-estradiol. 17β-estradiol alone serves as positive control, and the excipients serve as negative control. On day 4 (d4) the animals are killed, and the uteri and vaginae are removed and weighed. The organ weights are converted to mg/100 g body weight, then the mean value and the standard deviation are calculated for each dosage. The inhibition of uterus growth induced by 17β-estradiol is shown as percentage inhibition.

Series [4] has as its system ovarian estradiol synthesis. In words: Stimulation of ovarian oestrogen synthesis (HPG axis) in intact adult rats. The class given is in vivo, rat. As to conditions: hormonally intact adult rats, daily for 10 days; quotient of peripheral estradiol values after and before treatment. From the text:
The clinical use both of pure anti-oestrogens and of various SERMs for the treatment of premenopausal women is limited by their property of stimulating the ovaries through activation of the hypothalamic-pituitary-gonadal axis (HPG axis), which leads to the increase in peripheral estradiol levels (Palomba, S., Orio, F., Jr., Morelli, M., Russo, T., Pellicano, M., Zupi, E., Lombardi, G., Nappi, C., Panici, P. L., and Zullo, F. (2002). Raloxifene administration in premenopausal women with uterine leiomyomas: a pilot study. J Clin Endocrinol Metab 87, 3603-3608). This stimulation of the HPG axis is associated with penetration of the blood-brain barrier and penetration of the brain. To investigate the ovary-stimulating properties of the claimed pharmacological compounds, hormonally intact adult rats were treated with the substances daily for a period of 10 days. The study end point is the quotient of peripheral estradiol values after and before treatment.

Series [5] concerns endometriosis lesions. The series can be described thus: Endometriosis model in the rat (autologous transplantation). The class given is in vivo. As to conditions: rat. From the text:
Using intact adult female rats, experimental endometriosis was induced in the autologous transplantation model based on Vernon M. W. and Wilson E. A., 1985 (Fertil Steril. 44(5):684-694). A uterine horn was removed from animals that were exclusively in oestrus, the myometrium was separated from the endometrium and biopsies with dimensions of 4×4 mm were obtained from the endometrial tissue. Two uterine fragments were transplanted onto the inside of the abdominal wall (peritoneum) and two uterine fragments were transplanted onto the mesenterium of the same animal (4 fragments per animal). After 21 days the animals with endometriosis were laparotomized, and the size of the transplants was determined. The animals were treated after laparotomy and then daily in the morning with the stated dosages of the selected claimed substances by subcutaneous administration. Finally, 28 days after the start of treatment (49 days after transplantation), all the animals were laparotomized again and the size of the lesion was measured and was correlated with the size before the start of treatment.

The subject of series [6] is peripheral cholesterol level. The series can be described thus: Hepatic oestrogenicity in the ovariectomized adult rat (plasma cholesterol). As to conditions: ovariectomized adult rats, s.c. daily for 6 days; cholesterol day 0 vs day 8. The class given is in vivo. An excerpt:
Substances with oestrogenic action influence the synthesis of various plasma proteins, of coagulation factors and fibrinolytic factors in the liver. […] In the present investigations, lowering of the peripheral cholesterol level is used as a surrogate parameter for analysis of the hepatic oestrogenicity of the claimed pharmacological compounds. Adult ovariectomized rats were, after a pause of 6-10 days, treated daily for 6 days with the substances by subcutaneous application. The plasma cholesterol levels were determined and compared before and after the respective treatment.

Counter-ions that a name gives are not always drawn.

Take `CN(CCCCCCC1=C(c2ccc(F)cc2)CCCc2cc(O)ccc21)CCCCS(=O)(=O)CCC(F)(F)F` [Example 51, 8-(4-Fluorophenyl)-9-[6-(methyl{4-[(3,3,3-trifluoropropyl)sulphonyl]butyl}amino)hexyl]-6,7-dihydro-5H-benzo[7]annulen-3-ol]: in series [1], the IC50 (as a rule, the point on the concentration scale where inhibition reaches its midpoint) was 30 nM. The Emax at 0.1 mg/kg in series [2] (maximum at dose 0.1 mg/kg) amounted to 22%. The inhibition in vivo at 0.3 mg/kg in series [3] came out at 59%.
As for `CN(CCCCCCC1=C(c2ccc(F)cc2)CCCc2cc(O)ccc21)CCCS(=O)(=O)CCCCC(F)(F)F` [Example 80, 8-(4-Fluorophenyl)-9-[6-(methyl{3-[(5,5,5-trifluoropentyl)sulphonyl]propyl}amino)hexyl]-6,7-dihydro-5H-benzo[7]annulen-3-ol], in series [1], the IC50 was found to be 8 nM. Besides, the inhibition in vivo at 0.3 mg/kg in series [3] amounted to 59%. Besides, the “Stimulation of ovarian oestrogen synthesis: factor at a dose of 3 mg/kg rat” value (“Stimulation” for short) in series [4] turned out to be 2.3.
Take `CN(CCCCCCC1=C(c2ccc(F)cc2)CCCc2cc(O)ccc21)CCCCS(=O)(=O)CCCC(F)(F)C(F)(F)F` [Example 114, 8-(4-fluorophenyl)-9-[6-(methyl{4-[(4,4,5,5,5-pentafluoropentyl)sulphonyl]butyl}amino)hexyl]-6,7-dihydro-5H-benzo[7]annulen-3-ol]: the IC50 in series [1] came to 10 nM. For the same compound, the inhibition in vivo at 0.3 mg/kg in series [3] worked out at 49%. Further, in series [4], the “Stimulation” value stood at 1.4.
Take `CN(CCCCCCC1=C(c2ccc(F)cc2)CCCc2cc(O)ccc21)CCCS(=O)(=O)CCCC(F)(F)C(F)(F)F` [Example 115, 8-(4-fluorophenyl)-9-[6-(methyl{3-[(4,4,5,5,5-pentafluoropentyl)sulphonyl]propyl}amino)hexyl]-6,7-dihydro-5H-benzo[7]annulen-3-ol]: in series [5] (28 days of treatment, 115 tested 0.1-1 mg/kg, 44 tested 0.3-10 mg/kg), the “dosage with significant reduction in sizes of lesions” value came to 1 mg/kg. In addition, the “reduction of lesion size” value in series [5] (s.c. daily, 4 weeks (FIG. 2A, FIG. 2B)) is given as “significant dose-dependent reduction of lesion size”. Also, in series [1], the IC50 was found to be 13 nM. For the same compound, in series [2], the Emax at 0.03 mg/kg is 3%. For the same compound, the “hepatic oestrogenicity: lowering of the peripheral cholesterol level” value in series [6] was “only observed at high dosage”. The inhibition in vivo at 0.3 mg/kg in series [3] turned out to be 50%. For the same compound, the “Stimulation” value in series [4] is 2.7.
On to `CN(CCCCCCC1=C(c2ccc(F)cc2)CCCc2cc(O)ccc21)CCCS(=O)(=O)CCCC(F)(F)F` [Example 117, 8-(4-fluorophenyl)-9-[6-(methyl{3-[(4,4,4-trifluorobutyl)sulphonyl]propyl}amino)hexyl]-6,7-dihydro-5H-benzo[7]annulen-3-ol], for which the IC50 in series [1] amounted to 18 nM. In series [2], the Emax at 0.3 mg/kg amounted to 18%. Besides, the inhibition in vivo at 0.3 mg/kg in series [3] came out at 65%. The “Stimulation” value in series [4] came to 2.1.
On to `CN(CCCCCCC1=C(c2ccc(F)cc2)CCCc2cc(O)ccc21)CCC[S+]([O-])CCCC(F)(F)C(F)(F)F` (stereo not shown) [Example 118, 8-(4-fluorophenyl)-9-[6-(methyl{3-[(4,4,5,5,5-pentafluoropentyl)sulphinyl]propyl}amino)hexyl]-6,7-dihydro-5H-benzo[7]annulen-3-ol], for which the IC50 in series [1] was determined as 9 nM. The Emax at 0.03 mg/kg in series [2] came out at 8%. Also, the “hepatic oestrogenicity: lowering of the peripheral cholesterol level” value in series [6] is listed as “only observed at high dosage”. In series [3], the inhibition in vivo at 0.3 mg/kg turned out to be 78%. Further, in series [4], the “Stimulation” value came to 2.3.
Consider `CN(CCCCCCC1=C(c2ccc(F)cc2)CCCc2cc(O)ccc21)CCCCS(=O)(=O)C1CCC(F)(F)CC1` [Example 122, 9-{6-[{4-[(4,4-difluorocyclohexyl)sulphonyl]butyl}(methyl)amino]hexyl}-8-(4-fluorophenyl)-6,7-dihydro-5H-benzo[7]annulen-3-ol], for which, in series [1], the IC50 was 6 nM. The Emax at 0.3 mg/kg in series [2] worked out at 7%. The inhibition in vivo at 0.3 mg/kg in series [3] is 52%. Further, the “Stimulation” value in series [4] is on record as 2.4.
For `CN(CCCCCCC1=C(c2ccc(F)cc2)CCCc2cc(O)ccc21)CCCS(=O)(=O)CC1CCC(F)(F)CC1` [Example 123, 9-{6-[(3-{[(4,4-difluorocyclohexyl)methyl]sulphonyl}propyl)(methyl)amino]hexyl}-8-(4-fluorophenyl)-6,7-dihydro-5H-benzo[7]annulen-3-ol], the IC50 in series [1] is 13 nM. The Emax at 0.3 mg/kg in series [2] was determined as 8%. The inhibition in vivo at 0.3 mg/kg in series [3] was determined as 56%. The “Stimulation” value in series [4] was 2.5.
With `CN(CCCCCCC1=C(c2cccc(F)c2)CCCc2cc(O)ccc21)CCCCS(=O)(=O)CCCC(F)(F)C(F)(F)F` [Example 124, 8-(3-fluorophenyl)-9-[6-(methyl{4-[(4,4,5,5,5-pentafluoropentyl)sulphonyl]butyl}amino)hexyl]-6,7-dihydro-5H-benzo[7]annulen-3-ol], the IC50 in series [1] was determined as 13 nM. For the same compound, in series [3], the inhibition in vivo at 0.3 mg/kg was 67%. In series [4], the “Stimulation” value is listed as 2.0.
In the case of `O=C(c1ccc(OCCN2CCCCC2)cc1)c1c(-c2ccc(O)cc2)sc2cc(O)ccc12` [Raloxifene hydrochloride, Raloxifene, reference compound], the “Stimulation” value in series [4] is 3.1.
